In PMC8590286, “A novel CD123-targeted therapeutic peptide loaded by micellar delivery system combats refractory acute myeloid leukemia” (Journal of Hematology & Oncology, 2021):
Structures can show the parent of a compound that is named as a salt.

Tests used:
AE & CKIT^D816V mice = experiment: Survival experiments of Ara-C or HHT in AE & CKIT^D816V AML mice; type: in vivo, mouse; conditions: for median survival of AML mice treated with Ara-C: 25, 50 and 100 mg/kg i.p. daily for 4 days from day 9, versus Con, n=9; for median survival of AML mice treated with HHT: 250 μg/kg i.p. every 2 days from day 9, n=8
Procedure: The regimen of cytarabine hydrochloride (Ara-C): On day 9 after AE & CKIT^D816V cells implantation, the mice were randomly divided into 4 groups (n=9) including Con (5% glucose), 25, 50 and 100 mg/kg Ara-C. All mice were treated with daily intraperitoneal (i.p.) injections for 4 days and stopped. The survival of the mice was recorded every day.
The regimen of homoharringtonine (HHT): On day 9 after AE & CKIT^D816V cells implantation, the mice were randomly divided into 2 groups (n=8) and i.p. injected with 5% glucose and 250 μg/kg HHT. The administration was given every 2 days. The survival of the mice was recorded every day.
Fig. S7. Therapeutic efficacy of Ara-C or HHT in AE & CKIT^D816V mice. (A) The median survival of AML mice treated with Ara-C was not prolonged compared with the Con group (n=9). […] On day 9 after AE & CKIT^D816V cells implantation, AML mice were treated with i.p. injection of 5% glucose, Ara-C (25, 50 and 100 mg/kg) or HHT (250 μg/kg) as the regimens described.

[1] = tested on: CD123^+ AML cell line MOLM-13 cells; experiment: Flow cytometry binding of FITC-labeled peptide/micelles to MOLM-13 cells; type: cell-based, human; conditions: 0.1 and 0.5 μM, 0.5 h
Procedure: Fig. 1 A Affinity of ^mPO-6 to MOLM-13 cells incubated at 0.1 and 0.5 μM for 0.5 h. B Images of ^mPO-6 bound with MOLM-13 cells at 0.1 μM for 0.5 h obtained from the laser confocal microscopy. C Effects of ^mPO-6 on the cell viability in the presence of IL-3 (n = 4). D and E Effects of ^mPO-6 on the cell viability of the primary AML blasts.
(§1) Fig. S1. Affinity of PO-6 and ^mPO-6 to different leukemia cells. The MOLM-13, K562 or HL-60 cells was incubated with PO-6 or ^mPO-6 at 0.1 and 0.5 μM for 0.5 h. Resulting cells were collected and subjected to C6 Accuri® flow cytometer.
(§2) MOLM-13, HL-60 and K562 cells of 4×10^5/mL were incubated with FITC-labeled PO-6 or ^mPO-6 at 0.1 μM and 0.5 μM for 0.5 h. After twice washed with PBS, subjected to C6 Accuri® flow cytometer (Accuri Cytometers, Ann Arbor, MI) and 1×10^4 cells were collected. Acquired data were analyzed by CFlow Plus software.

[2] = tested on: CD123^− AML cell line HL-60; experiment: Flow cytometry binding of FITC-labeled peptide to HL-60 cells; type: cell-based, human; conditions: 0.1 and 0.5 μM, 0.5 h
Procedure: as §1, §2

[3] = tested on: chronic myeloid leukemia cell line K562 cells; experiment: Flow cytometry binding of FITC-labeled peptide to K562 cells; type: cell-based, human; conditions: 0.1 and 0.5 μM, 0.5 h
Procedure: as §1, §2

Nc1ccn([C@@H]2O[C@H](CO)[C@@H](O)[C@@H]2O)c(=O)n1 [cytarabine hydrochloride]
median survival of AML mice treated with Ara-C (AE & CKIT^D816V mice): did not respond | median survival of AML mice treated with Ara-C (AE & CKIT^D816V mice; listed as Ara-C): not prolonged

COC(=O)C[C@](O)(CCCC(C)(C)O)C(=O)O[C@@H]1C(OC)=C[C@]23CCCN2CCc2cc4c(cc2[C@H]13)OCO4 [homoharringtonine]
median survival of AML mice treated with HHT (AE & CKIT^D816V mice): did not respond | median survival of AML mice treated with HHT (AE & CKIT^D816V mice; listed as HHT): did not prolong the AML mice median survival significantly

DDDYDTRAQGTDIGCDFRRISDDD [PO-6]
binding to MOLM-13 cells [1]: effectively bind | binding to HL-60 cells [2]: weakly bind | binding to K562 cells [3]: weakly bind
